Source: article PMC12728616, “Regioselective Glycosylation of Fluorine-18-Labeled Sorbitol for Enhanced Bacterial Detection In Vivo Using PET” (JACS Au, 2025)

Legend:
[1] = test system: S. aureus; design: method as in previously reported S. aureus sensitive PET tracers; settings: S. aureus infection; ref previously reported S. aureus sensitive PET tracers; cited from earlier work
[2] = test system: K. pneumoniae; experiment: In vitro uptake of 18F-tracers by bacteria; assay type: cell-based, Klebsiella pneumoniae
Description: (§1) In vitro evaluation of ^18F-tracers was conducted according to our established procedure. Briefly, bacteria were incubated overnight at 37 °C, subcultured into a fresh medium at an initial OD600 of 0.05, and then allowed to reach the mid log phase (OD600 ∼ 0.4). The cultures were subsequently incubated with ^18F-tracers (final concentration: 0.1 MBq/mL) at 37 °C for 90 min. Subsequently, 300 μL aliquots of these cultures were centrifuged at 13,200 rpm for 6 min. The resulting pellets were washed with 300 μL of phosphate-buffered saline (PBS). The radioactivity of the pellets and supernatants was measured using a gamma counter. Uptake values were normalized to colony-forming units (CFUs).

[3] = test system: Gram-positive bacteria; experiment: In vitro uptake of 18F-tracers across the Gram-positive panel; assay type: cell-based; settings: panel of Gram-positive pathogens; FLT/FCT except E. faecalis; FMT versus FNT
Description: as §1

[4] = in vivo; cited from earlier work
[5] = test system: Enterococcus faecalis; experiment: In vitro uptake of 18F-tracers by bacteria; assay type: cell-based; settings: E. faecalis; 37 °C, 90 min
Description: as §1

[6] = test system: K. pneumoniae; experiment: PET/CT in K. pneumoniae pneumonia murine model; assay type: in vivo, mice
Description: Given promising low background signals in uninfected mice, we further evaluated [^18F]-FNT and [^18F]-FMT in two different clinically relevant mouse models of lung and muscle infections. […] PET scanning was performed at 24 h postintranasal bacterial installation (Figure A). […] The ROI-derived infected/uninfected lung ratios of [^18F]-FDS, [^18F]-FMT, and [^18F]-FNT were approximately 3.2, 6.1, and 5.9-fold, respectively (Figure C), also supported by the ex vivo infected/uninfected lung ratio of [^18F]-FDS (∼1.6-fold), [^18F]-FMT (∼5.7-fold), and [^18F]-FNT (∼5.7-fold) (Figure D). Post-PET scans, infected lungs were harvested to determine colony forming units (CFUs). No significant differences in bacterial counts were observed among [^18F]-FDS, [^18F]-FMT, and [^18F]-FNT (Figure E). To confirm radiotracer specificity, we also evaluated mice inoculated with 10x heat-killed K. pneumoniae into lungs (Supporting Information Figure S5A–C).
(§2) All animal procedures were conducted in accordance with UCSF institutional guidelines and were approved by the Institutional Animal Care and Use Committee (IACUC). Female CBA/J mice (9 and 11 weeks old) were used for the study. Pulmonary infection and bacterial myositis models were established based on previously published protocols. , For pulmonary infection, 50 μL of K. pneumoniae (5 × 10^6 CFU) or 10× heat-killed K. pneumoniae were administered intranasally under anesthesia 24 h prior to imaging using PET. After PET scans, infected lungs were homogenized in PBS and plated on LB agar. Plates were incubated overnight at 37 °C to quantify the bacterial burden. For the bacterial myositis model, mice were intramuscularly injected with either 1 × 10^6 CFUs of live S. aureus (MSSA or MRSA) or 1 × 10^7 CFUs of heat-killed bacteria (50 μL) into the left and right deltoid muscles, respectively, 10 h prior to imaging using PET. Immediately following all imaging studies, target tissues were harvested, and radioactivity was measured using a gamma counter.
μPET/CT imaging was conducted using a nanoScan μPET/CT instrument (PET123S/CT1512, Mediso). Mice were anesthetized with 2% isoflurane/oxygen for intravenous administration of ^18F-tracers (∼5 MBq in 150 μL) via tail vein and maintained during data acquisition. PET data of uninfected mice were acquired in the list mode for 90 min, starting immediately after ^18F-tracer administration, followed by a CT scan. The PET data were reconstructed into three-dimensional volumes and coregistered with CT images using manufacturer-provided software in 53 dynamic frames (15 × 2 s, 6 × 5 s, 6 × 10 s, 4 × 30 s, 6 × 30 s, and 16 × 300 s). PET data of infected mice were acquired for 20 min, starting at 70 min postinjection of ^18F-tracer (mid time 80 min), followed by a CT scan. The list mode PET data were reconstructed into three-dimensional volumes in a single static frame. All PET scans were corrected for ^18F decay, dead time, and random coincidences and reconstructed into a 160 × 160 × 184 matrix with voxel size 0.8 mm using a three-dimensional ordered subject expectation maximization (OSEM) algorithm (40 iterations, 1 subset). Both attenuation and scatter corrections were applied to PET reconstructions using the coregistered CT. ROIs were drawn manually around the brain, lungs, liver, kidney, and urinary bladder using Amide software to generate image-derived TACs. For the estimation of blood pool radioactivity over time, ROIs were drawn on the left atrium. To estimate the plasma half-life of tracers, the TAC of the blood pool was fitted to a two-compartment model using a biexponential decay function: C t(t) = Ae ^–αt + Be ^ ‑βt , where C t(t) is the tracer concentration (% IDcc^–1) at time (t), A and B are the intercepts, and α and β are the distribution and elimination rate constants, respectively. , Quantitative uptake values are expressed as % IDcc^–1, representing the percent of the total injected dose per cubic centimeter. […]

[7] = Dynamic PET/CT and ex vivo biodistribution in uninfected mice; settings: uninfected mice
Description: To assess the effect of [^18F]-FDS glycosylation on tissue uptake in vivo, we performed dynamic PET/CT scans for 90 min after the intravenous injection of [^18F]-FNT, [^18F]-FMT, and [^18F]-FDS in uninfected mice, followed by ex vivo analysis.
(§3) μPET/CT imaging was conducted using a nanoScan μPET/CT instrument (PET123S/CT1512, Mediso). Mice were anesthetized with 2% isoflurane/oxygen for intravenous administration of ^18F-tracers (∼5 MBq in 150 μL) via tail vein and maintained during data acquisition. PET data of uninfected mice were acquired in the list mode for 90 min, starting immediately after ^18F-tracer administration, followed by a CT scan. The PET data were reconstructed into three-dimensional volumes and coregistered with CT images using manufacturer-provided software in 53 dynamic frames (15 × 2 s, 6 × 5 s, 6 × 10 s, 4 × 30 s, 6 × 30 s, and 16 × 300 s). PET data of infected mice were acquired for 20 min, starting at 70 min postinjection of ^18F-tracer (mid time 80 min), followed by a CT scan. The list mode PET data were reconstructed into three-dimensional volumes in a single static frame. All PET scans were corrected for ^18F decay, dead time, and random coincidences and reconstructed into a 160 × 160 × 184 matrix with voxel size 0.8 mm using a three-dimensional ordered subject expectation maximization (OSEM) algorithm (40 iterations, 1 subset). Both attenuation and scatter corrections were applied to PET reconstructions using the coregistered CT. ROIs were drawn manually around the brain, lungs, liver, kidney, and urinary bladder using Amide software to generate image-derived TACs. For the estimation of blood pool radioactivity over time, ROIs were drawn on the left atrium. To estimate the plasma half-life of tracers, the TAC of the blood pool was fitted to a two-compartment model using a biexponential decay function: C t(t) = Ae ^–αt + Be ^ ‑βt , where C t(t) is the tracer concentration (% IDcc^–1) at time (t), A and B are the intercepts, and α and β are the distribution and elimination rate constants, respectively. , Quantitative uptake values are expressed as % IDcc^–1, representing the percent of the total injected dose per cubic centimeter. For the S. aureus myositis model, identical volume ROIs were drawn corresponding to the peak uptake of [^18F]-FNT at the live S. aureus inoculated site and heat-killed S. aureus inoculated site, respectively.

[8] = test system: MRSA; experiment: PET/CT in MRSA myositis murine model; assay type: in vivo, mice; settings: MRSA myositis
Description: We next compared [^18F]-FNT and [^18F]-FMT PET in a S. aureus myositis model. […] To compare the in vivo detection sensitivity of [^18F]-FNT and [^18F]-FMT in a MRSA myositis model, we injected the left deltoid with live MRSA and the right deltoid with 10x heat-killed MRSA, respectively (Figure B).
as §2, with “For the bacterial myositis model, mice were intramuscularly injected with either 1 × 10^6 CFUs of live S. aureus (MSSA or MRSA) or 1 × 10^7 CFUs of heat-killed bacteria (50 μL) into the left and right deltoid muscles, respectively, 10 h prior to imaging using PET.” left out
as §3

[9] = blood pool TAC, two-compartment fit

For `Nc1ccc(C(=O)O)c([18F])c1` [2-[18F]F-PABA], the target-to-nontarget ratio [1] is given as about 8 fold.

In the case of `[11CH3][C@@H](N)C(=O)O` [D-[3-11C]Ala], the target-to-nontarget ratio [1] is listed as about 4 fold.

For `N[C@H](CC[11C](N)=O)C(=O)O` [D-[5-11C]-Gln], the target-to-nontarget ratio [1] is given as about 2.3 fold.

For `[11CH3]SCC[C@@H](N)C(=O)O` [D-[11C]Met], the target-to-nontarget ratio [1] is given as about 10 fold.

In the case of `[2H]C([2H])([18F])[C@@]([2H])(N)C(=O)O` [D-[18F]FAla-d3], the target-to-nontarget ratio [1] is listed as about 2.4 fold.

In the case of `N[C@H](C[18F])C(=O)O` [D-[18F]FAla], the target-to-nontarget ratio [1] is given as about 2 fold.

For `Nc1ccc([11C](=O)O)cc1` [[11C]PABA], the target-to-nontarget ratio [1] is listed as about 28 fold.

For `OC[C@@H](O)[C@@H](O[C@@H]1O[C@H](CO)[C@@H](O)[C@H](O)[C@H]1O)[C@H](O)[C@@H]([18F])CO` [[18F]FCT, 2-deoxy-2-[18F]fluoro-D-cellobiotol], the in vitro uptake [2] was “poorly taken up” and the “in vitro uptake in Gram-positive bacteria” value [3] was “negligible uptake”.

For `OC[C@H]1OC(O)[C@H]([18F])[C@@H](O)[C@@H]1O` (stereo partly drawn) [[18F]FDG], the known effective dose [4] is given as 0.017 mSv/MBq.

For `OCC1OC(OC2C(CO)OC(O)C([18F])C2O)C(O)C(O)C1O` (stereo not drawn) [[18F]FDM], the target-to-nontarget ratio [1] is listed as about 6 fold.

For `OC[C@@H](O)[C@@H](O)[C@H](O)[C@@H]([18F])CO` [[18F]FDS, 2-deoxy-2-[18F]fluoro-D-sorbitol, reference compound], the in vitro uptake [5] was “accumulated”, the “ex vivo infected/uninfected lung ratio” value ([6]; ex vivo gamma counting after PET) was about 1.6 fold and the “ROI-derived infected/uninfected lung ratio” value ([6]; in vivo PET, 80 min postinjection (mid time), 24 h after intranasal K. pneumoniae) was “approximately 3.2 fold”. The “in vitro uptake in Gram-positive bacteria” value [3] was “not taken up”, the “area under the curve (AUC0→90min) in bladder” value ([7]; i.v.) was 36165.8 ± 3961.5 % IDcc^–1·min and the “area under the curve (AUC0→90min) in liver” value ([7]; i.v.) was 289.4 ± 21.3 % IDcc^–1·min. For the same compound, the “peak uptake (Cmax) in bladder” value ([7]; i.v., dynamic PET 90 min) was 525.5 ± 37.0 % IDcc^–1, the “peak uptake (Cmax) in kidneys” value ([7]; i.v., dynamic PET 90 min) was 71.3 ± 9.7 % IDcc^–1 and the “peak uptake (Cmax) in liver” value ([7]; i.v., dynamic PET 90 min) was 28.6 ± 5.0 % IDcc^–1. The “elimination half-life (T1/2β)” value [7, 9] was 18.74 min and the “plasma distribution half-life (T1/2α)” value [7, 9] was 0.43 min.

For `OC[C@@H](O)[C@@H](O)[C@H](O)[C@H]([18F])CO` [[18F]FMtl], the target-to-nontarget ratio [1] is listed as about 4 fold.

In the case of `OCC1OC(OC2C(O)C(CO)OC(O)C2[18F])C(O)C(O)C1O` (stereo not drawn) [[18F]FSK, reference compound], the target-to-nontarget ratio [1] is given as about 7 fold, the “ratio of live/heat-killed S. aureus inoculated sites, in vivo” value ([8]; PET 80 min postinjection (mid time)) is given as 28 fold and the “ratio of live/heat-killed S. aureus inoculated sites, ex vivo” value ([8]; ex vivo analysis) is given as 17 fold.

For `OCCOCc1ccc(-c2noc(-c3ccc(OCC[18F])c(C(F)(F)F)c3)n2)cc1` [[18F]TZ4877], the target-to-nontarget ratio [1] is listed as about 1.3 fold.
